Experimental findings from patent EP1673354B1, “ARYLINDENOPYRIDINES AND ARYLINDENOPYRIMIDINES AND THEIR USE AS ADENOSINE A2A RECEPTOR ANTAGONISTS” (Ortho-McNeil Pharmaceutical, Inc., priority 2003, dated 2005) are described below.

Structures are written as SMILES. Where two headings read alike, the source gives them in different places.

For one assay, the target named is T1, Adenosine A1 receptor (Homo sapiens, UniProt P30542).
T1 sequence (P30542 1-326): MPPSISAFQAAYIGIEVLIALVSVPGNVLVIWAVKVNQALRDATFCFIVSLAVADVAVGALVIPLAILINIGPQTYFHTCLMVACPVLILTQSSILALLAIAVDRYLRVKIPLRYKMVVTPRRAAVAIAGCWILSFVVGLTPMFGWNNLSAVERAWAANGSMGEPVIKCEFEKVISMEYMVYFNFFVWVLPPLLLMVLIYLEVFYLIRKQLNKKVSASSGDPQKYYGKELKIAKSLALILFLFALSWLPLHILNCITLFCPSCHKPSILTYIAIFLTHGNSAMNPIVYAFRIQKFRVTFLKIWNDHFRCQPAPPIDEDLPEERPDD
The experiment in a line: A1 antagonist function (no method described). The format is cell-based.

The target in assay [1] is T2, human adenosine A2a receptors (Homo sapiens, UniProt P29274).
T2 construct: expressed in transfected cells; host or cells: CHO-K1 cells with cAMP-inducible beta-galactosidase reporter gene
Briefly: Adenosine A2a receptor functional assay, antagonist mode (cAMP-inducible beta-galactosidase reporter, 50 nM NECA). The settings on record: CHO-K1 cells, read-out: Ki (nM) A2a antagonist function. It counts as cell-based. The method, then: Adenosine A2a Receptor Functional Assay
CHO-K1 cells overexpressing human adenosine A2a receptors and containing cAMP-inducible beta-galactosidase reporter gene were seeded at 40-50K/well into 96-well tissue culture plates and cultured for two days. On assay day, cells were washed once with 200 µL assay medium (F-12 nutrient mixture/0.1 % BSA). For agonist assay, adenosine A2a receptor agonist NECA was subsequently added and cell incubated at 37°C, 5% CO2 for 5 hrs before stopping reaction. In the case of antagonist assay, cells were incubated with antagonists for 5 minutes at R.T. followed by addition of 50 nM NECA. Cells were then incubated at 37°C, 5% CO2 for 5 hrs before stopping experiments by washing cells with PBS twice. 50 µL 1X lysis buffer (Promega, 5X stock solution, needs to be diluted to 1X before use) was added to each well and plates frozen at -20°C. For β-galactosidase enzyme colorimetric assay, plates were thawed out at room temperature and 50 µL 2X assay buffer (Promega) added to each well. Color was allowed to develop at 37°C for 1 h or until reasonable signal appeared. Reaction was then stopped with 150 µL 1 M sodium carbonate. […] Data was analyzed in Microsoft Excel and GraphPad Prism programs.

In assay [2] the target is T3, human A2a adenosine receptor (Homo sapiens, UniProt P29274).
T3 construct: purchased PerkinElmer RB-HA2a; host or cells: HEK293 cell plasma membrane
Briefly: Ligand binding assay for adenosine A2a receptor ([3H]CGS21680, HEK293 plasma membrane). The method, then: Ligand Binding Assay for Adenosine A2a Receptor
Ligand binding assay of adenosine A2a receptor was performed using plasma membrane of HEK293 cells containing human A2a adenosine receptor (PerkinElmer, RB-HA2a) and radioligand [^3H]CGS21680 (PerkinElmer, NET1021). Assay was set up in 96-well polypropylene plate in total volume of 200 µl by sequentially adding 20 µL1:20 diluted membrane, 130 µLassay buffer (50 mM Tris·HCl, pH7.4 10 mM MgCl2, 1 mM EDTA) containing [^3H] […] Nonspecific binding was determined by […] NECA. Reaction was carried out at room temperature for 2 hours before filtering through 96-well GF/C filter plate pre-soaked in 50 mM Tris·HCl, pH7.4 containing 0.3% polyethylenimine. Plates were then washed 5 times with cold 50 mM Tris·HCl, pH7.4, dried and sealed at the bottom. Microscintillation fluid 30 µl was added to each well and the top sealed. Plates were counted on Packard Topcount for [^3H]. Data was analyzed in Microsoft Excel and GraphPad Prism programs.

Where [3] appears, read: radioligand [3H]CGS21680, HEK293 membranes, room temperature 2 hours; read-out: Ki (nM) A2a binding.

T2 sequence (P29274 whole entry): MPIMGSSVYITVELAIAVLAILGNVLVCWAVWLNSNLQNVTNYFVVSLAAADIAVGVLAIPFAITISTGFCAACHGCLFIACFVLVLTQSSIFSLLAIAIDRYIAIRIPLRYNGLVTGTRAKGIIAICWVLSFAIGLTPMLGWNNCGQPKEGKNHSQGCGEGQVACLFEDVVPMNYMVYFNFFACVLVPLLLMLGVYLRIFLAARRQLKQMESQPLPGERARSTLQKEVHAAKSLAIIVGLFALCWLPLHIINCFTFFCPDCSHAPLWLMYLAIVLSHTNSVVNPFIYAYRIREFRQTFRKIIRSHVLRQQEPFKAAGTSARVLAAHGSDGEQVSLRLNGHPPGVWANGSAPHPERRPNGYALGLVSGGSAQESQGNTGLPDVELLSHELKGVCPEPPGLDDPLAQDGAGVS
T3 sequence (P29274 whole entry): as above

In general, Ki refers to the dissociation constant of the complex between target and ligand, obtained from inhibition or displacement. With `COc1ccc(-c2nc(N)nc3c2Cc2ccccc2-3)cc1` [Compound 1], the Ki came out at 53 nM at Adenosine A1 receptor, 234 nM in assay [1] and 44.6 nM in assay [2] (setting [3]).

Regarding `COc1ccc(-c2nc(N)nc3c2C(=O)c2ccccc2-3)cc1` [Compound 2], the Ki on Adenosine A1 receptor was 5.32 nM; in assay [1] it was 6.87 nM; in assay [2] (setting [3]), 2.03 nM.

In the case of `Nc1nc(-c2ccco2)c2c(n1)-c1ccccc1C2` [Compound 4], the Ki on Adenosine A1 receptor turned out to be 15.6 nM; in assay [1], 2.63 nM; in assay [2] (setting [3]), 0.885 nM.

On to `Nc1nc(-c2cccnc2)c2c(n1)-c1ccccc1C2=O` [Compound 5], for which the values for the Ki (at Adenosine A1 receptor; in assay [1]; in assay [2] (setting [3])) were 27.1 nM, 9.64 nM and 5.36 nM, respectively.

`Nc1nc(-c2ccncc2)c2c(n1)-c1ccccc1C2=O` [Compound 6]: the Ki turned out to be 16.4 nM at Adenosine A1 receptor, 4.56 nM in assay [1] and 3.9 nM in assay [2] (setting [3]).

On to `Nc1nc(-c2nccs2)c2c(n1)-c1ccccc1C2=O` [Compound 7], for which the Ki on Adenosine A1 receptor stood at 6.89 nM; in assay [1], 0.49 nM.

Consider `Nc1nc(-c2ccc(Cl)cc2)c2c(n1)-c1ccccc1C2=O` [Compound 8], for which the Ki was 11.6 nM at Adenosine A1 receptor, 5.5 nM in assay [1] and 58.4 nM in assay [2] (setting [3]).

As to `Nc1nc(-c2cccc([N+](=O)[O-])c2)c2c(n1)-c1ccccc1C2=O` [Compound 9], the Ki on Adenosine A1 receptor is 7.69 nM; in assay [1], 4.85 nM; in assay [2] (setting [3]), 20.8 nM.

At Adenosine A1 receptor, `Nc1nc(-c2ccccc2)c2c(n1)-c1ccccc1C2=O` [Compound 10, 2-amino-4-phenyl-indeno[1,2-d]pyrimidin-5-one] had a Ki of 1.2 nM.

For the compound `COc1cccc(-c2nc(N)nc3c2C(=O)c2ccccc2-3)c1` [Compound 11], the Ki at Adenosine A1 receptor amounted to 2.47 nM; in assay [1], 1.63 nM; in assay [2] (setting [3]), 8.85 nM.

On to `COc1ccccc1-c1nc(N)nc2c1C(=O)c1ccccc1-2` [Compound 12], for which the Ki on Adenosine A1 receptor came out at 172 nM; in assay [1], 32.5 nM; in assay [2] (setting [3]), 33.5 nM.

As for `Nc1nc(-c2cccc(O)c2)c2c(n1)-c1ccccc1C2=O` [Compound 13], the figures for the Ki (on Adenosine A1 receptor; in assay [1]; in assay [2] (setting [3])) were 10.3 nM, 35.6 nM and 5.16 nM, respectively.

Take `Nc1nc(-c2ccsc2)c2c(n1)-c1ccccc1C2=O` [Compound 15]: the Ki worked out at 3.46 nM on Adenosine A1 receptor, 0.258 nM in assay [1] and 3.23 nM in assay [2] (setting [3]).

As for `Nc1nc(-c2ccco2)c2c(n1)-c1ccc(Br)cc1C2=O` [Compound 16], the values for the Ki (on Adenosine A1 receptor; in assay [1]; in assay [2] (setting [3])) were 5.22 nM, 0.169 nM and 1.75 nM, respectively.

Take `Nc1nc(-c2ccco2)c2c(n1)-c1cccc(O)c1C2=O` [Compound 17]: the Ki was found to be 111 nM at Adenosine A1 receptor, 67.1 nM in assay [1] and 6.3 nM in assay [2] (setting [3]).

Turning to `CSc1nc(N)nc2c1C(=O)c1c(N)cccc1-2` [Compound 18], the Ki was 189 nM on Adenosine A1 receptor, above 3000 nM in assay [1] and 318 nM in assay [2] (setting [3]).

As to `CN(C)C=Nc1nc(-c2cccc(F)c2)c2c(n1)-c1ccccc1C2=O` [Compound 19], the figures for the Ki (on Adenosine A1 receptor; in assay [1]; in assay [2] (setting [3])) were 21.6 nM, 20.9 nM and 111 nM, respectively.

Regarding `Nc1nc(-c2ccco2)c2c(n1)-c1c(N)cccc1C2=O` [Compound 21], the Ki was 3.51 nM at Adenosine A1 receptor, 0.053 nM in assay [1] and 0.376 nM in assay [2] (setting [3]).

With `Nc1nc(-c2ccco2)c2c(n1)-c1ccc(C(F)(F)F)cc1C2=O` [Compound 22], the Ki on Adenosine A1 receptor is 2.75 nM; in assay [1], 0.055 nM; in assay [2] (setting [3]), 14.2 nM.

As for `Nc1nc(-c2ccco2)c2c(n1)-c1cc(C(F)(F)F)ccc1C2=O` [Compound 23], the Ki at Adenosine A1 receptor came out at 1.47 nM; in assay [1] it was 0.55 nM; in assay [2] (setting [3]) it was 13.6 nM.

On to `CNc1nc(-c2ccccc2)c2c(n1)-c1ccccc1C2=O` [Compound 24], for which the Ki on Adenosine A1 receptor is 5.99 nM; in assay [1], above 3000 nM; in assay [2] (setting [3]), 30.3 nM.

Consider `Nc1nc(-c2ccco2)c2c(n1)-c1cc(Cl)c(Cl)cc1C2=O` [Compound 25], for which the Ki at Adenosine A1 receptor is 17.4 nM; in assay [1] it was 5.69 nM; in assay [2] (setting [3]), 173 nM.

In the case of `Nc1nc(-c2ccco2)c2c(n1)-c1c(Cl)ccc(Cl)c1C2=O` [Compound 26], the Ki on Adenosine A1 receptor was found to be 3.13 nM; in assay [1] it was 0.88 nM; in assay [2] (setting [3]), 34.6 nM.

For the compound `CCN(CC)CCNc1nc(-c2ccccc2)c2c(n1)-c1ccccc1C2=O` [Compound 27], the Ki was above 1000 nM at Adenosine A1 receptor, 68.3 nM in assay [1] and 147 nM in assay [2] (setting [3]).

Take `Nc1nc(-c2ccc(F)c(F)c2)c2c(n1)-c1ccccc1C2=O` [Compound 28]: the Ki at Adenosine A1 receptor is 5.86 nM; in assay [1], 3.53 nM; in assay [2] (setting [3]), 48.9 nM.

Turning to `Nc1nc(-c2cc(F)cc(F)c2)c2c(n1)-c1ccccc1C2=O` [Compound 29], the Ki on Adenosine A1 receptor was found to be 4.27 nM; in assay [1] it was 1.42 nM; in assay [2] (setting [3]), 20.9 nM.

In the case of `COc1ccc(-c2nc(N)nc3c2C(=O)c2ccccc2-3)cn1` [Compound 30], the Ki at Adenosine A1 receptor stood at 4.05 nM; in assay [1] it was 10.2 nM; in assay [2] (setting [3]) it was 31.5 nM.

In the case of `C[C@H](O)[C@@H](O)c1cccc2c1C(=O)c1c(-c3ccccc3)nc(N)nc1-2` [Compound 32], the Ki on Adenosine A1 receptor turned out to be 9.89 nM; in assay [1], 0.634 nM; in assay [2] (read-out: Ki (nM) A2a binding; radioligand [3H]CGS21680, HEK293 membranes, room temperature 2 hours), 3.55 nM.

For the compound `C[C@H](O)[C@@H](O)c1cccc2c1-c1nc(N)nc(-c3ccccc3)c1C2=O` [Compound 33], the Ki amounted to 0.021 nM at Adenosine A1 receptor, 0.34 nM in assay [1] and 0.175 nM in assay [2] (setting [3]).

As to `CCCn1cc(-c2nc(N)nc3c2C(=O)c2ccccc2-3)ccc1=O` [Compound 34], in assay [2] (setting [3]), the inhibitory constant (Ki) amounted to 560 nM.

`Nc1nc(-c2ccco2)c2c(n1)-c1cc(Br)ccc1C2=O` [Compound 35]: the Ki on Adenosine A1 receptor turned out to be 7.09 nM; in assay [1], 0.265 nM; in assay [2] (setting [3]), 3.49 nM.

With `Nc1nc(-c2ccco2)c2c(n1)-c1c(F)cccc1C2=O` [Compound 36], the values for the Ki (on Adenosine A1 receptor; in assay [1]; in assay [2] (setting [3])) were 2.52 nM, 0.052 nM and 4.37 nM, respectively.

`COc1cccc2c1C(=O)c1c(-c3ccco3)nc(N)nc1-2` [Compound 37]: the inhibitory constant (Ki) on Adenosine A1 receptor amounted to 3.07 nM; in assay [1] it was 0.143 nM; in assay [2] (setting [3]), 2.86 nM.

With `CC(C)(C)OC(=O)NC1CCN(Cc2cccc3c2C(=O)c2c(-c4ccccc4)nc(N)nc2-3)CC1` [Compound 60], the Ki in assay [2] (setting [3]) was determined as 34.3 nM.

Turning to `CCN(Cc1ccncc1)Cc1cccc2c1C(=O)c1c(-c3ccccc3)nc(N)nc1-2` [Compound 61], the Ki in assay [2] (setting [3]) was 29.8 nM.

As for `CN(Cc1ccco1)Cc1cccc2c1C(=O)c1c(-c3ccccc3)nc(N)nc1-2` [Compound 62], the Ki in assay [2] (setting [3]) worked out at 58.4 nM.

Regarding `N#Cc1c(N)nc(-c2ccco2)c2c1-c1ccccc1C2=O` [Compound 63, 9H-indeno[2,1-c]pyridine-4-carbonitrile, 3-amino-1-furan-2-yl-9-oxo-], the Ki worked out at 0.18 nM at Adenosine A1 receptor and 0.59 nM in assay [2] (setting [3]).

Regarding `CN(C)CCN(C)C(=O)c1c(N)nc(-c2ccco2)c2c1-c1ccccc1C2=O` [Compound 77, 9H-indeno[2,1-c]pyridine-4-carboxylic acid, 3-amino-1-furan-2-yl-9-oxo-, (2-dimethylamino-ethyl)-methyl-amide], the Ki in assay [1] was determined as 0.68 nM; in assay [2] (setting [3]), 6.25 nM.

For the compound `CC(CN(C)C)NC(=O)c1c(N)nc(-c2ccco2)c2c1-c1ccccc1C2=O` (centres unmarked) [Compound 78, 9H-indeno[2,1-c]pyridine-4-carboxylic acid, 3-aminol-furan-2-yl-9-oxo-, (2-dimethylamino-1-methyl-ethyl)-amide], the Ki stood at 1.58 nM in assay [1] and 17.6 nM in assay [2] (setting [3]).

In the case of `CCc1nc(N)c(C#N)c2c1C(=O)c1ccccc1-2` [Compound 85], the Ki in assay [2] (setting [3]) stood at 508 nM.
